pKi: −log10 of the molar value.

For the assay, the target named is T1, CRF1 receptor (Rattus norvegicus, UniProt P35353).
T1 construct: from tissue; host or cells: rat frontal cortex membranes
T1 sequence (P35353 24-415): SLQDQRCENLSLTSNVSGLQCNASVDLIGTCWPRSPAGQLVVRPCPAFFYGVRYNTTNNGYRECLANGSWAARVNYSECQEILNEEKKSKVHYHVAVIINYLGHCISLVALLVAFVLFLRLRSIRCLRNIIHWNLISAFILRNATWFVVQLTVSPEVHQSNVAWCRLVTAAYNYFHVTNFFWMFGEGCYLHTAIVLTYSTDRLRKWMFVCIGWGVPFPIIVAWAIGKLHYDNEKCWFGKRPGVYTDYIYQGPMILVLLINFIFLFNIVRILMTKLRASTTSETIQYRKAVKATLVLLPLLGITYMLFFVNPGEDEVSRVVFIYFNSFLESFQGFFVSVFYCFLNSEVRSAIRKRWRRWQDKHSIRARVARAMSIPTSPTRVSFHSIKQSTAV
Briefly: CRF1 Receptor Binding Assay (rat brain membranes, 125I-ovine-CRF). The settings on record: read-out: Ki, the binding constant to the CRF1 receptor. The method, then: The following is a description of the isolation of rat brain membranes for use in the standard binding assay as well as a description of the binding assay itself. It is based on a modified protocol described by De Souza (De Souza, 1987).
To prepare brain membranes for binding assays, rat frontal cortex is homogenized in 10 mL of ice cold tissue buffer (50 mM HEPES buffer pH 7.0, containing 10 mM MgCl2, 2 mM EGTA, 1 μg/ml aprotinin, 1 μg/ml leupeptin and 1 μg/ml pepstatin). The homogenate is centrifuged at 48,000×g for 10 min. and the resulting pellet rehomogenized in 10 mL of tissue buffer. Following an additional centrifugation at 48,000×g for 10 min., the pellet is resuspended to a protein concentration of 300 μg/mL.
Binding assays are performed in 96 well plates at a final volume of 300 μL. The assays are initiated by the addition of 150 μL membrane suspension to 150 μL of assay buffer containing ^125I-ovine-CRF (final concentration 150 pM) and various concentrations of inhibitors. […] Filters are assessed for radioactivity in a Packard TopCount. Nonspecific binding is determined in the presence of excess (10 μM) α-helical CRF. […]
IC50 values are calculated using standard methods known in the art, such as with the non-linear curve fitting program RS/1 (BBN Software Products Corp., Cambridge, Mass.).

A word on the pKi: it is the Ki on a negative log10 scale, so that one unit is a factor of ten. For the molecule `CCc1nc(-c2ccc(N(C)C)nc2C)c(CC)nc1N[C@@H]1c2ccccc2C[C@@H]1OC(C)=O` [Example 1, (1R,2S)Acetic acid 1-[5-(6-dimethylamino-2-methyl-pyridin-3-yl)-3,6-diethyl-pyrazin-2-ylamino]-indan-2-yl ester], the negative logarithm of the Ki (pKi) was 7.72.

On to `CCO[C@H]1Cc2ccccc2[C@H]1Nc1nc(CC)c(-c2ccc(N(C)C)nc2C)nc1CC` [Example 3, (1R,2S)[5-(6-Dimethylamino-2-methyl-pyridin-3-yl)-3,6-diethyl-pyrazin-2-yl]-(2-ethoxy-indan-1-yl)-amine], for which the pKi is 7.89.

The values above are taken from US20060211710A1, “Substituted aryl 1,4-pyrazine derivatives” (Pfizer Inc, priority 2005, published 2006).
